Series [1] is described as follows: Solubility of compound A in Britton-Robinson buffer at each pH. The following applies: 20° C., 30 minutes. In kind it is physicochemical. The procedure:
Regarding a compound A, the solubility was measured by measuring the solubility in the Britton-Robinson buffer at 20° C. at each pH of pHs 1, 3, 5, 7, 9, 11 and 13. The compound A was added to a solution at each pH, the mixture was vigorously stirred for 30 seconds every 5 minutes, and an amount of a physiologically active substance dissolved at a time point of 30 minutes was measured (according to a method of confirming the solubility described in Japanese Pharmacopoeia, general rules).

Usually melting point stands for the temperature of the solid-liquid transition. On to `CCOC(=O)CNC(=O)c1cn2nc(NCCCN3CCC(OC(c4ccccc4)c4ccccc4)CC3)ccc2n1` (hydrate or solvate) [Reference Example 7, N-[6-[3-[4-(diphenylmethoxy)piperidino]propylamino]imidazo[1,2-b]pyridazine-2-carbonyl]glycine ethyl ester], for which the melting point fell in the range of 172 to 174 °C.

Compound `CC(C)(C(=O)O)c1cn2nc(NCCCN3CCC(OC(c4ccccc4)c4ccccc4)CC3)ccc2n1` [Reference Example 4, 2-[6-[3-[4-(diphenylmethoxy)piperidino]propylamino]imidazo[1,2-b]pyridazin-2-yl]-2-methylpropionic acid] had a melting point of 205 to 206 °C.

`CC(C)(C(=O)O)c1cn2nc(NCCCN3CCC(OC(c4ccccc4)c4ccccc4)CC3)ccc2n1.O.O` (hydrate or solvate) [compound A, 2-[6-[3-[4-(diphenylmethoxy)piperidino]propylamino]imidazo[1,2-b]pyridazin-2-yl]-2-methylpropionic acid dihydrate] returned a melting point of 203 to 205 °C.

In the case of `CC(C)(C(=O)O)c1cn2nc(NCCCN3CCC(OC(c4ccccc4)c4ccccc4)CC3)ccc2n1.O.O` [compound A, 2-[6-[3-[4-(diphenylmethoxy)piperidino]propylamino]imidazo[1,2-b]pyridazin-2-yl]-2-methylpropionic acid dihydrate], the “solubility on an acidic side or an alkaline side” value in series [1] (acidic or alkaline pH) is “enhanced solubility”. For the same compound, in series [1] (neutral pH), the “solubility at neutral pH” value is “hardly dissolved”.

Source of the values: US20040137052A1, “Acid-containing preparations” (priority 2001, published 2004).
